Experimental data taken from the supplement of paper PMC10307832.

What was measured:
Test in all cases: relative viability (nuclei count vs DMSO), 5 days (fraction); higher = more cells survive
201T = test system: 201T
Outline: (§1)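 Relative viability is defined as nuclei in treated wells over nuclei in vehicle wells. Duplicate plates were run and medians reported. Lung cancer cell lines in 1536-well plates were dosed by pin tool one day after seeding, with one drug or with a fixed anchor-drug dose plus five library-drug doses (not always all listed) in √10 steps, and nuclei were counted after 5 days.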

ChaGo-K-1 = test system: ChaGo-K-1
Outline: as §1

EPLC-272H = test system: EPLC-272H
Outline: as §1

H3255 = test system: H3255
Outline: as §1

HCC-78 = test system: HCC-78
Outline: as §1

HCC-827 = test system: HCC-827
Outline: as §1

LC-2-ad = test system: LC-2-ad
Outline: as §1

LCLC-97TM1 = test system: LCLC-97TM1
Outline: as §1

NCI-H1666 = test system: NCI-H1666
Outline: as §1

NCI-H1915 = test system: NCI-H1915
Outline: as §1

NCI-H2087 = test system: NCI-H2087
Outline: as §1

NCI-H2126 = test system: NCI-H2126
Outline: as §1

NCI-H2347 = test system: NCI-H2347
Outline: as §1

NCI-H23 = test system: NCI-H23
Outline: as §1

NCI-H2405 = test system: NCI-H2405
Outline: as §1

NCI-H647 = test system: NCI-H647
Outline: as §1

NCI-H650 = test system: NCI-H650
Outline: as §1

PC-14 = test system: PC-14
Outline: as §1

RERF-LC-KJ = test system: RERF-LC-KJ
Outline: as §1

COc1cc2nccc(Oc3ccc(NC(=O)Nc4cc(C)on4)c(Cl)c3)c2cc1OC [Tivozanib] + NC(=O)Nc1cc(-c2cccc(F)c2)sc1C(=O)N[C@H]1CCCNC1 [AZD7762] (partner 0.2 µM) was tested, and the relative viability (201T; first compound 0.005 µM) was 0.599, the relative viability (201T; first compound 0.01581 µM) was 0.575 and the relative viability (201T; first compound 0.05 µM) was 0.659. For the same molecule, the relative viability (201T; first compound 0.1581 µM) was 0.595, the relative viability (201T; first compound 0.5 µM) was 0.601 and the relative viability (ChaGo-K-1; first compound 0.005 µM) was 0.847. It also gave a relative viability (ChaGo-K-1; first compound 0.01581 µM) of 0.831, a relative viability (ChaGo-K-1; first compound 0.05 µM) of 0.901 and a relative viability (ChaGo-K-1; first compound 0.1581 µM) of 0.909. The relative viability (ChaGo-K-1; first compound 0.5 µM) was 0.845, the relative viability (EPLC-272H; first compound 0.005 µM) was 0.147 and the relative viability (EPLC-272H; first compound 0.01581 µM) was 0.159. For the same molecule, the relative viability (EPLC-272H; first compound 0.05 µM) was 0.186, the relative viability (EPLC-272H; first compound 0.1581 µM) was 0.203 and the relative viability (EPLC-272H; first compound 0.5 µM) was 0.184. It also gave a relative viability (H3255; first compound 0.005 µM) of 0.672, a relative viability (H3255; first compound 0.01581 µM) of 0.86 and a relative viability (H3255; first compound 0.05 µM) of 0.961. It also gave a relative viability (H3255; first compound 0.1581 µM) of 0.735, a relative viability (H3255; first compound 0.5 µM) of 0.861 and a relative viability (HCC-78; first compound 0.005 µM) of 0.551. The relative viability (HCC-78; first compound 0.01581 µM) was 0.677, the relative viability (HCC-78; first compound 0.05 µM) was 0.674 and the relative viability (HCC-78; first compound 0.1581 µM) was 0.497. It also gave a relative viability (HCC-78; first compound 0.5 µM) of 0.657, a relative viability (HCC-827; first compound 0.005 µM) of 0.202 and a relative viability (HCC-827; first compound 0.01581 µM) of 0.25. It also gave a relative viability (HCC-827; first compound 0.05 µM) of 0.314, a relative viability (HCC-827; first compound 0.1581 µM) of 0.185 and a relative viability (HCC-827; first compound 0.5 µM) of 0.194. The relative viability (LC-2-ad; first compound 0.005 µM) was 0.821, the relative viability (LC-2-ad; first compound 0.01581 µM) was 0.846 and the relative viability (LC-2-ad; first compound 0.05 µM) was 0.856. The relative viability (LC-2-ad; first compound 0.1581 µM) was 0.881, the relative viability (LC-2-ad; first compound 0.5 µM) was 0.815 and the relative viability (LCLC-97TM1; first compound 0.005 µM) was 0.128. For the same molecule, the relative viability (LCLC-97TM1; first compound 0.01581 µM) was 0.274, the relative viability (LCLC-97TM1; first compound 0.05 µM) was 0.343 and the relative viability (LCLC-97TM1; first compound 0.1581 µM) was 0.208. For the same molecule, the relative viability (LCLC-97TM1; first compound 0.5 µM) was 0.262, the relative viability (NCI-H1666; first compound 0.005 µM) was 0.784 and the relative viability (NCI-H1666; first compound 0.01581 µM) was 0.761. It also gave a relative viability (NCI-H1666; first compound 0.05 µM) of 0.956, a relative viability (NCI-H1666; first compound 0.1581 µM) of 0.82 and a relative viability (NCI-H1666; first compound 0.5 µM) of 0.845. The relative viability (NCI-H1915; first compound 0.005 µM) was 0.728, the relative viability (NCI-H1915; first compound 0.01581 µM) was 0.687 and the relative viability (NCI-H1915; first compound 0.05 µM) was 0.711. The relative viability (NCI-H1915; first compound 0.1581 µM) was 0.717, the relative viability (NCI-H1915; first compound 0.5 µM) was 0.618 and the relative viability (NCI-H2087; first compound 0.005 µM) was 1.3. The relative viability (NCI-H2087; first compound 0.01581 µM) was 1.3, the relative viability (NCI-H2087; first compound 0.05 µM) was 1.28 and the relative viability (NCI-H2087; first compound 0.1581 µM) was 1.55. It also gave a relative viability (NCI-H2087; first compound 0.5 µM) of 1.22, a relative viability (NCI-H2126; first compound 0.005 µM) of 1.06 and a relative viability (NCI-H2126; first compound 0.01581 µM) of 0.936. For the same molecule, the relative viability (NCI-H2126; first compound 0.05 µM) was 1.02, the relative viability (NCI-H2126; first compound 0.1581 µM) was 0.732 and the relative viability (NCI-H2126; first compound 0.5 µM) was 1.01. The relative viability (NCI-H2347; first compound 0.005 µM) was 0.73, the relative viability (NCI-H2347; first compound 0.01581 µM) was 0.836 and the relative viability (NCI-H2347; first compound 0.05 µM) was 0.92. It also gave a relative viability (NCI-H2347; first compound 0.1581 µM) of 0.685, a relative viability (NCI-H2347; first compound 0.5 µM) of 0.709 and a relative viability (NCI-H23; first compound 0.005 µM) of 0.185. It also gave a relative viability (NCI-H23; first compound 0.01581 µM) of 0.229, a relative viability (NCI-H23; first compound 0.05 µM) of 0.295 and a relative viability (NCI-H23; first compound 0.5 µM) of 0.176. It also gave a relative viability (NCI-H2405; first compound 0.005 µM) of 0.759, a relative viability (NCI-H2405; first compound 0.01581 µM) of 0.893 and a relative viability (NCI-H2405; first compound 0.05 µM) of 0.735. For the same molecule, the relative viability (NCI-H2405; first compound 0.1581 µM) was 0.905, the relative viability (NCI-H2405; first compound 0.5 µM) was 0.518 and the relative viability (NCI-H647; first compound 0.005 µM) was 0.367. It also gave a relative viability (NCI-H647; first compound 0.01581 µM) of 0.42, a relative viability (NCI-H647; first compound 0.05 µM) of 0.789 and a relative viability (NCI-H647; first compound 0.1581 µM) of 0.377. It also gave a relative viability (NCI-H647; first compound 0.5 µM) of 0.369, a relative viability (NCI-H650; first compound 0.005 µM) of 0.771 and a relative viability (NCI-H650; first compound 0.01581 µM) of 1.08. For the same molecule, the relative viability (NCI-H650; first compound 0.05 µM) was 0.976, the relative viability (NCI-H650; first compound 0.1581 µM) was 0.958 and the relative viability (NCI-H650; first compound 0.5 µM) was 0.683. It also gave a relative viability (PC-14; first compound 0.005 µM) of 0.333, a relative viability (PC-14; first compound 0.01581 µM) of 0.338 and a relative viability (PC-14; first compound 0.05 µM) of 0.369. It also gave a relative viability (PC-14; first compound 0.1581 µM) of 0.385, a relative viability (PC-14; first compound 0.5 µM) of 0.375 and a relative viability (RERF-LC-KJ; first compound 0.005 µM) of 0.701. It also gave a relative viability (RERF-LC-KJ; first compound 0.01581 µM) of 0.925, a relative viability (RERF-LC-KJ; first compound 0.05 µM) of 1.07 and a relative viability (RERF-LC-KJ; first compound 0.1581 µM) of 0.659. It also gave a relative viability (RERF-LC-KJ; first compound 0.5 µM) of 0.892.
